From PMC9880438, “Pharmacokinetics of active compounds of a Terminalia chebula Retz. Ethanolic extract after oral administration rats using UPLC-MS/MS” (Frontiers in Pharmacology, 2023)
Read-outs that look alike come from different tables or passages of the source.

Experiments:
[1] = Stability of QC samples of the analytes in rat plasma under storage conditions; format: physicochemical; conditions: n = 6
Protocol: Preparation of quality control (QC) samples with three concentrations (low, medium, and high) of 16, 160, and 3,200 ng/ml for ellagic acid; 1.6, 16, 320 ng/ml for protocatechuic acid, ethyl gallate and 1,2,3,4,6-O-pentagalloylglucose; 40, 400 and 8,000 ng/ml for chebulic acid, gallic acid, corilagin and chebulinic acid and 160, 1,600, 32000 ng/ml for chebulagic acid. Both QC samples and stock solutions were stored in a refrigerator at 4°C.
Under variable treatment conditions: stored for 12 h at auto-sampler, for 4 hours at room temperature, under three freeze-thaw cycles, and kept at −80°C for 7 days, quality control samples were analyzed to assess the stability of the nine analytes in plasma.

[2] = rat, in vivo, po
Protocol: (§1) UPLC-MS/MS system was used for analysis and monitoring, which consisted primarily of an Agilent 1290 UPLC system (Agilent Technologies, Germany) and an Agilent 6,470 series triple quad (TQ) mass spectrometer (MS) (Agilent Technologies, Singapore) equipped with an electrospray ionization source.
(§2) Separation was carried out on an ACQUITY UPLC® HSS T3 column (2.1 × 100 mm, 1.8 μm), and temperature in the column was kept at 20°C. In the mobile phase, 0.1% formic acid in water and acetonitrile were used as solvents A and B, respectively. Gradient elution was performed as follows: 1%–5% B at 0–3 min; 5%–30% B at 3–4 min; 30%–40% B at 4–8 min; 40%–100% B at 8–9 min; 100%–100% B at 9–12 min. The flow rate was set at 0.3 ml/min and the injection volume was 10 μL.
(§3) Multiple reaction monitoring (MRM) was used for quantitative analysis in negative (−) ionization mode. The mass spectrometric parameters were set as follows: drying gas (N2) temperature was 300°C; gas (N2) flow rate was 7 L/min; atomizer pressure was 35 psi; sheath gas flow was 11 L/min and capillary voltage was 3800 V. The specific mass spectrometric parameters of the precursor ion, product ion, fragmentor, collision energy, and ion modes of the nine compounds and IS are shown in Table 1.
(§4) The plasma sample (100 μl) was sequentially spiked with 20 μl IS solutions (caffeic acid, 1,000 ng/ml); 20 μL methanol, and 10 μl formic acid, then vortex-mixed for 1 min. The mixture was precipitated protein with 1,000 μl methanol by vortex mixing for 3 min. The supernatant was collected into a 1.5 ml clean centrifuge tube after centrifugation at for 10 min 14,000 rpm, and evaporated under a nitrogen stream until dry. After that, the residue was redissolved in 100 μl methanol, vortex-mixed for 3 min, then centrifuged for 10 min at 14,000 rpm. 10 μl analyte was injected into the UPLC-MS/MS system.
(§5) In this study, six of male rats were used, given free access to water, and fasted for 12 h before the experimental period. The TC extracts were dissolved in 0.5% CMC-Na aqueous solution as a suspension at a concentration of 1 g/ml. A dose of 10 g/kg of the suspension was administered to the rats orally, the blood samples of approximately 300 μL were drawn from the fundus venous plexus of rats pre- and post-oral administration at 0.00, 0.08, 0.17, 0.25, 0.50, 0.75, 1, 2, 4, 6, 8, 10, 12, 24, 36, 48, 60, 72, 84, 96, 120, 144 and 168 h, respectively. For analysis, the plasma supernatants collected from the centrifuged plasma were frozen at −80°C after centrifugation for 10 min at 6,000 rpm.
(§6) Data were expressed as mean ± standard deviation (mean ± SD). MassHunter Workstation software (version B.09.00) was quantitatively used to calculate the plasma concentrations of nine analytes. To evaluate the specific pharmacokinetic parameters, DAS Software (DAS 3.0, Medical College of Wannan, China) was used to process the pharmacokinetic results.

[3] = set-up: method as in Mishra et al., 2013; conditions: dose of 40 mg/kg; ref Mishra et al., 2013; cited from earlier work
[4] = Pharmacokinetic study in rats after oral administration of TC extracts (UPLC-MS/MS of plasma); conditions: for AUC / AUC(0-inf) / Cmax / MRT / MRT inf / Tmax / half-life: male, Sprague-Dawley, rat, plasma, po, 10 g/kg
Protocol: as §1, §2, §3, §4, §5, §6

in vivo = conditions: male, Sprague-Dawley, rat, po, 10 g/kg
Protocol: as §1, §2, §3, §4, §5, §6

[5] = spiked 40 ng/mL, autosampler for 12 h
[6] = spiked 40 ng/mL, room temperature for 4 h
[7] = spiked 40 ng/mL, three freeze-thaw cycles
[8] = spiked 40 ng/mL, −80°C for 7 days
[9] = spiked 400 ng/mL, autosampler for 12 h
[10] = spiked 400 ng/mL, room temperature for 4 h
[11] = spiked 400 ng/mL, three freeze-thaw cycles
[12] = spiked 400 ng/mL, −80°C for 7 days
[13] = spiked 8,000 ng/mL, autosampler for 12 h
[14] = spiked 8,000 ng/mL, room temperature for 4 h
[15] = spiked 8,000 ng/mL, three freeze-thaw cycles
[16] = spiked 8,000 ng/mL, −80°C for 7 days
[17] = spiked 16 ng/mL, autosampler for 12 h
[18] = spiked 16 ng/mL, room temperature for 4 h
[19] = spiked 16 ng/mL, three freeze-thaw cycles
[20] = spiked 16 ng/mL, −80°C for 7 days
[21] = spiked 1.6 ng/mL, autosampler for 12 h
[22] = spiked 1.6 ng/mL, room temperature for 4 h
[23] = spiked 1.6 ng/mL, three freeze-thaw cycles
[24] = spiked 1.6 ng/mL, −80°C for 7 days
[25] = spiked 320 ng/mL, autosampler for 12 h
[26] = spiked 320 ng/mL, room temperature for 4 h
[27] = spiked 320 ng/mL, three freeze-thaw cycles
[28] = spiked 320 ng/mL, −80°C for 7 days

Row | AUC [4] [ng·h/mL] | AUC(0-inf) [4] [ng·h/mL] | Cmax [4] [ng/mL] | MRT [4] [h] | MRT inf [4] [h] | Tmax [4] [h] | half-life [4] [h] | Measured concentration after storage [1, 17] [ng/mL] | SMILES | Measured concentration after storage [1, 5] [ng/mL] | Measured concentration after storage [1, 6] [ng/mL] | Measured concentration after storage [1, 7] [ng/mL] | Measured concentration after storage [1, 8] [ng/mL] | Measured concentration after storage [1, 9] [ng/mL] | Measured concentration after storage [1, 10] [ng/mL] | Measured concentration after storage [1, 11] [ng/mL] | Measured concentration after storage [1, 12] [ng/mL] | Measured concentration after storage [1, 13] | Measured concentration after storage [1, 14] | Measured concentration after storage [1, 15] | Measured concentration after storage [1, 16] | other results
1 | 16700 ± 12400 | 17400 ± 12500 | 591 ± 203 | 53.5 ± 4.12 | 99.4 ± 46.2 | 1.67 ± 0.52 | 26.4 ± 22.2 | – | O=C(O[C@@H]1O[C@@H]2COC(=O)c3cc(O)c(O)c(O)c3-c3c(cc(O)c(O)c3O)C(=O)O[C@H]([C@H]1O)[C@@H]2O)c1cc(O)c(O)c(O)c1 [Corilagin, corilagin] | 38.8 ± 1.2 | 39.6 ± 3.0 | 42.8 ± 2.4 | 39.7 ± 2.1 | 435.7 ± 34.5 | 398.2 ± 34.3 | 405.3 ± 6.0 | 395.6 ± 7.2 | 7,335.4 ± 704.5 ng/mL | 8,930.5 ± 535.3 ng/mL | 8,802.7 ± 713.0 ng/mL | 8,304.6 ± 362.4 ng/mL | –
2 | 6810 | 7340 | 390 ± 80.5 | 45.9 ± 8.13 | 56.5 ± 13 | 0.97 ± 0.84 | 8.23 ± 8.95 | 17.6 ± 1.6 | O=c1oc2c(O)c(O)cc3c(=O)oc4c(O)c(O)cc1c4c23 [Ellagic acid, ellagic acid] | – | – | – | – | – | – | – | – | – | – | – | – | Measured concentration after storage [1, 18]: 17.5 ± 1.7 ng/mL; Measured concentration after storage [1, 19]: 16.9 ± 1.4 ng/mL; Measured concentration after storage [1, 20]: 16.8 ± 1.0 ng/mL; Measured concentration after storage ([1]; spiked 160 ng/mL, autosampler for 12 h): 154.8 ± 13.9 ng/mL; Measured concentration after storage ([1]; spiked 160 ng/mL, room temperature for 4 h): 156.3 ± 17.8 ng/mL; Measured concentration after storage ([1]; spiked 160 ng/mL, three freeze-thaw cycles): 171.8 ± 10.5 ng/mL; Measured concentration after storage ([1]; spiked 160 ng/mL, −80°C for 7 days): 163.8 ± 4.3 ng/mL; Measured concentration after storage ([1]; spiked 3,200 ng/mL, autosampler for 12 h): 3,450.0 ± 313.1 ng/mL; Measured concentration after storage ([1]; spiked 3,200 ng/mL, room temperature for 4 h): 3,437.2 ± 188 ng/mL; Measured concentration after storage ([1]; spiked 3,200 ng/mL, three freeze-thaw cycles): 3,438.7 ± 285.7 ng/mL; Measured concentration after storage ([1]; spiked 3,200 ng/mL, −80°C for 7 days): 3,594.0 ± 81.5 ng/mL; Shape of plasma concentration-time curve ([4]; rat plasma, oral TC extracts, Figure 2): double peaks phenomenon
3 | 16.9 ± 8.28 | 16.9 ± 8.2 | 12.5 ± 4.38 | 1.55 ± 0.42 | 1.6 ± 0.4 | 0.63 ± 0.26 | 2.08 ± 2.16 | 16.3 ± 2.6 | CCOC(=O)c1cc(O)c(O)c(O)c1 [Ethyl gallate, ethyl gallate] | – | – | – | – | – | – | – | – | – | – | – | – | Measured concentration after storage [1, 21]: 1.7 ± 0.2 ng/mL; Measured concentration after storage [1, 22]: 1.4 ± 0.1 ng/mL; Measured concentration after storage [1, 23]: 1.6 ± 0.1 ng/mL; Measured concentration after storage [1, 24]: 1.6 ± 0.1 ng/mL; Measured concentration after storage [1, 18]: 14.6 ± 1.9 ng/mL; Measured concentration after storage [1, 19]: 13.6 ± 1.2 ng/mL; Measured concentration after storage [1, 20]: 14.2 ± 0.4 ng/mL; Measured concentration after storage [1, 25]: 323.3 ± 13.8 ng/mL; Measured concentration after storage [1, 26]: 345.6 ± 14.7 ng/mL; Measured concentration after storage [1, 27]: 328.6 ± 17.1 ng/mL; Measured concentration after storage [1, 28]: 307.4 ± 29.5 ng/mL

Continued, compound first:

Row | SMILES | AUC [4] [ng·h/mL] | AUC(0-inf) [4] [ng·h/mL] | Cmax [4] [ng/mL] | MRT [4] [h] | MRT inf [4] [h] | Tmax [4] [h] | half-life [4] [h] | Measured concentration after storage [1, 17] [ng/mL] | Measured concentration after storage [1, 5] [ng/mL] | Measured concentration after storage [1, 6] [ng/mL] | Measured concentration after storage [1, 7] [ng/mL] | Measured concentration after storage [1, 8] [ng/mL] | Measured concentration after storage [1, 9] [ng/mL] | Measured concentration after storage [1, 10] [ng/mL] | Measured concentration after storage [1, 11] [ng/mL] | Measured concentration after storage [1, 12] [ng/mL] | Measured concentration after storage [1, 13] | Measured concentration after storage [1, 14] | Measured concentration after storage [1, 15] | Measured concentration after storage [1, 16] | other results
4 | O=C(O)C[C@H](C(=O)O)[C@H]1c2c(cc(O)c(O)c2O)C(=O)O[C@@H]1C(=O)O [Chebulic acid, chebulic acid] | – | – | – | – | – | – | – | – | 35.6 ± 3.9 | 39.9 ± 1.9 | 40.1 ± 3.3 | 37.5 ± 2.1 | 393.3 ± 52.6 | 395.7 ± 29.7 | 398.4 ± 12.2 | 364.4 ± 17.5 | 8,230.9 ± 726.4 ng/mL | 7,996.4 ± 517.7 ng/mL | 7,691 ± 316.7 ng/mL | 6,878.6 ± 535.3 ng/mL | T1/2 [2]: 1.51 h; AUC (0-tn) ([2]; 10 g/kg): 29045.30 ± 4,395.44 h·ng/mL; AUC (0-∞) ([2]; 10 g/kg): 34069.03 ± 6,641.84 h·ng/mL; Cmax ([2]; 10 g/kg): 1927.06 ± 572.23 ng/mL; MRT (0-tn) ([2]; 10 g/kg): 33.56 ± 3.77 h; MRT (0-∞) ([2]; 10 g/kg): 77.92 ± 22.14 h; T1/2 ([2]; 10 g/kg): 6.60 ± 4.36 h; Tmax ([2]; 10 g/kg): 1.67 ± 0.52 h
5 | O=C(O)C[C@@H]1C(=O)O[C@H]2[C@H](OC(=O)c3cc(O)c(O)c(O)c3)[C@@H](OC(=O)c3cc(O)c(O)c4c3[C@H]1[C@H](O)C(=O)O4)[C@H](OC(=O)c1cc(O)c(O)c(O)c1)O[C@@H]2COC(=O)c1cc(O)c(O)c(O)c1 [Chebulinic acid, chebulinic acid] | 38200 ± 16300 | 41900 ± 15800 | 853 ± 433 | 58.2 ± 5.63 | 76 ± 15.3 | 1.83 ± 0.41 | 43.3 ± 13.2 | – | 42.2 ± 5.1 | 36.8 ± 3.9 | 41.8 ± 2.3 | 47.1 ± 1.6 | 359.7 ± 18.1 | 414.3 ± 21.9 | 378.1 ± 29.2 | 373.5 ± 23.6 | 7,174.2 ± 321.2 ng/mL | 8,592.3 ± 543.8 ng/mL | 8,447.4 ± 574.6 ng/mL | 8,787.4 ± 801 ng/mL | Anti-gastric ulcer effect [3]: good anti-gastric ulcer effect
6 | O=C(O)c1cc(O)c(O)c(O)c1 [Gallic acid, gallic acid] | – | – | – | – | – | – | – | – | 34.9 ± 5.1 | 35.5 ± 1.0 | 41.0 ± 2.8 | 41.2 ± 0.8 | 431.7 ± 27.3 | 385 ± 36.1 | 393.9 ± 35.3 | 358.6 ± 21.8 | 8,051.6 ± 602.3 ng/mL | 8,051.2 ± 472.7 ng/mL | 8,222.3 ± 456.3 ng/mL | 8,304.7 ± 418.5 ng/mL | AUC (in vivo): 16000 ng·h/mL; AUC(0-inf) (in vivo): 16000 ng·h/mL; Cmax (in vivo): 2230 ng/mL; MRT (in vivo): 6.58 ± 1.07 h; MRT inf (in vivo): 6.58 ± 1.07 h; Tmax (in vivo): 1.17 ± 0.41 h; half-life (in vivo): 1.51 ± 0.43 h; T1/2 ([2]; male, Sprague-Dawley): 2.06 h
7 | O=C(O)c1ccc(O)c(O)c1 [Protocatechuic acid, protocatechuic acid] | 70.8 ± 16.6 | 70.8 ± 16.6 | 24.7 ± 3.27 | 3.39 ± 0.83 | 3.39 ± 0.83 | 0.54 ± 0.1 | 2.06 ± 0.76 | 14.5 ± 2.0 | – | – | – | – | – | – | – | – | – | – | – | – | Measured concentration after storage [1, 21]: 1.7 ± 0.2 ng/mL; Measured concentration after storage [1, 22]: 1.6 ± 0.1 ng/mL; Measured concentration after storage [1, 23]: 1.8 ± 0.1 ng/mL; Measured concentration after storage [1, 24]: 1.5 ± 0.2 ng/mL; Measured concentration after storage [1, 18]: 16.4 ± 0.6 ng/mL; Measured concentration after storage [1, 19]: 13.9 ± 0.7 ng/mL; Measured concentration after storage [1, 20]: 13.1 ± 1.2 ng/mL; Measured concentration after storage [1, 25]: 305.9 ± 15.9 ng/mL; Measured concentration after storage [1, 26]: 297.9 ± 8.4 ng/mL; Measured concentration after storage [1, 27]: 330.3 ± 18.5 ng/mL; Measured concentration after storage [1, 28]: 334.2 ± 8.0 ng/mL
